Experimental data as given in ChEMBL document CHEMBL1201862, “PubChem BioAssay data set” (2004).
Several values for one entry are separate records, joined by “and”; a condition that tells them apart may be missing. Equal values may be shown once. Where a name gives a salt, the structure may show the parent alone. Activity calls are given as the source filed them.

Tests used:
[1] = target: Protein-arginine deiminase type-4 (Homo sapiens, UniProt Q9UM07); test: human PAD4 inhibitor potency, dose response, biochemical, fluorescence readout (AID 492970)
[2] = target: Peroxisome proliferator-activated receptor gamma/Nuclear receptor coactivator 3 (Homo sapiens, UniProt P37231); test: TR-FRET dose response biochemical High Throughput Screening assay for agonists of the steroid receptor coactivator 3 (SRC-3) recruitment by the peroxisome proliferator-activated receptor gamma (PPAR gamma): non-selective agonists. [Related pubchem assays: 1301 (Confirmation screen.), 1048 (Primary screen.)]; format: functional
[3] = target: Peroxisome proliferator-activated receptor gamma/Nuclear receptor coactivator 2 (Homo sapiens, UniProt P37231); test: (§1) TR-FRET dose response biochemical High Throughput Screening assay for agonists of the steroid receptor coactivator 2 (SRC-2) recruitment by the peroxisome proliferator-activated receptor gamma (PPAR gamma): non-selective agonists. [Related pubchem assays: 1297, 1032 ]; format: functional
[4] = target: Peroxisome proliferator-activated receptor gamma/Nuclear receptor coactivator 1 (Homo sapiens, UniProt P37231); test: as §1, with “1 (SRC-1)” for “2 (SRC-2)”, “assays (depositor defined):AID1300, AID1808, AID504735, AID631]” for “assays: 1297, 1032 ]”; format: protein assay
[5] = target: T1, E3 ubiquitin-protein ligase XIAP (Homo sapiens, UniProt P98170); test: Counter Screen using XIAP-Bir3 for Chemical Antagonists of Bir1/2 domains of IAP-family anti-apoptotic proteins. [Related pubchem assays (depositor defined):AID1018, AID1449, AID1514, AID1638, AID1749, AID1750, AID488957, AID488963]
T1 sequence (P98170 whole entry): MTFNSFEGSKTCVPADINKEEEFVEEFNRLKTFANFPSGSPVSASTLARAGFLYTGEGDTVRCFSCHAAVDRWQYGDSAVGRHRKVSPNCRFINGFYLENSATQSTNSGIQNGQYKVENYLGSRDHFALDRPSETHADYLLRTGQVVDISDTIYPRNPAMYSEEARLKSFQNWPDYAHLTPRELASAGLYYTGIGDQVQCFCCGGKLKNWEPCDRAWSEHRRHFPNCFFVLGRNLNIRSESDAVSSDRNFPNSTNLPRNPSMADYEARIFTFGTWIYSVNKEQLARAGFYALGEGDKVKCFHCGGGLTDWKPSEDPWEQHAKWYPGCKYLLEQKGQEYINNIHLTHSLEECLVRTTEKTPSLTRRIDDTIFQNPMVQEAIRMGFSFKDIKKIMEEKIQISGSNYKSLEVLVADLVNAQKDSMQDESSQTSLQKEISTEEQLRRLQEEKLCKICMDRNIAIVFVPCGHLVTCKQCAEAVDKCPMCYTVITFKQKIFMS

[6] = target: T1, E3 ubiquitin-protein ligase XIAP; test: XIAP antagonists, biochemical, IAP family, fluorescence polarization (AID 1018); format: functional
[7] = target: Delta-type opioid receptor (Homo sapiens, UniProt P41143); test: SAR Analysis of Agonists of the DOR Receptor using an Image-Based Assay - Set 3. [Related pubchem assays (depositor defined):AID1777, AID1786]; format: functional
[8] = target: T2, Kappa-type opioid receptor (Homo sapiens, UniProt P41145); test: KOR agonist analogs, arrestin-GFP redistribution, SAR follow-up, imaging, image-based, set 3 (AID 488833); format: functional
T2 sequence (P41145 whole entry): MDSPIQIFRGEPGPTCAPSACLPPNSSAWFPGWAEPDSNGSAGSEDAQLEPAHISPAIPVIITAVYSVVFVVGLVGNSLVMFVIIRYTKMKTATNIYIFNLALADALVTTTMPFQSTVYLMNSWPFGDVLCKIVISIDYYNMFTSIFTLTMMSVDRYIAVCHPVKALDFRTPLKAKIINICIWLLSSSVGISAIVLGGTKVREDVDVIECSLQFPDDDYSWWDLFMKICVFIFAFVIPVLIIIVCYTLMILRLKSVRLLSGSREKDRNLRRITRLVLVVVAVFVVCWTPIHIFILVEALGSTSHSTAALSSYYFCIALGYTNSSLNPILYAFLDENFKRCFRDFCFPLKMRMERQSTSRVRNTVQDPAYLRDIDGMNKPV

[9] = target: T2, Kappa-type opioid receptor; test: SAR analysis of small molecule agonists of the kappa opioid receptor via a luminescent beta-arrestin assay - Set 3. [Related pubchem assays (depositor defined):AID1777, AID1785, AID1786, AID1966, AID2133, AID2136, AID2284, AID2500]; format: functional
[10] = target: T3, Mu-type opioid receptor (Homo sapiens, UniProt P35372); test: SAR Analysis of Agonists of the MOR Receptor using an Image-Based Assay - Set 3. [Related pubchem assays (depositor defined):AID1777, AID1785, AID1786, AID1966, AID2133, AID2136, AID2284, AID2285, AID2352]; format: functional
T3 sequence (P35372 whole entry): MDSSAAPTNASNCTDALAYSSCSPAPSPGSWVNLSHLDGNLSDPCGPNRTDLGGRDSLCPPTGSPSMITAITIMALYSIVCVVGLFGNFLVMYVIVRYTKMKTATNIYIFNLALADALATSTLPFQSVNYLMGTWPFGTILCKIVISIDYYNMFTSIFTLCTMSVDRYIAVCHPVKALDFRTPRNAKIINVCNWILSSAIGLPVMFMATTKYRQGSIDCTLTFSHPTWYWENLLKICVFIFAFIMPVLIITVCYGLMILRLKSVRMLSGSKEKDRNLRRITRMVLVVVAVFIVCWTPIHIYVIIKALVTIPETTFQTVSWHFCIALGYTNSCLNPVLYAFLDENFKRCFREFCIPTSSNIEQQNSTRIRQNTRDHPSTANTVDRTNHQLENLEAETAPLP

[11] = target: Large T antigen (Simian virus 40, UniProt P03070); format: functional, Betapolyomavirus macacae;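 also: Confirmatory-stage PubChem screen for compounds that inhibit SV40 T antigen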
Sequence of Large T antigen (P03070 whole entry): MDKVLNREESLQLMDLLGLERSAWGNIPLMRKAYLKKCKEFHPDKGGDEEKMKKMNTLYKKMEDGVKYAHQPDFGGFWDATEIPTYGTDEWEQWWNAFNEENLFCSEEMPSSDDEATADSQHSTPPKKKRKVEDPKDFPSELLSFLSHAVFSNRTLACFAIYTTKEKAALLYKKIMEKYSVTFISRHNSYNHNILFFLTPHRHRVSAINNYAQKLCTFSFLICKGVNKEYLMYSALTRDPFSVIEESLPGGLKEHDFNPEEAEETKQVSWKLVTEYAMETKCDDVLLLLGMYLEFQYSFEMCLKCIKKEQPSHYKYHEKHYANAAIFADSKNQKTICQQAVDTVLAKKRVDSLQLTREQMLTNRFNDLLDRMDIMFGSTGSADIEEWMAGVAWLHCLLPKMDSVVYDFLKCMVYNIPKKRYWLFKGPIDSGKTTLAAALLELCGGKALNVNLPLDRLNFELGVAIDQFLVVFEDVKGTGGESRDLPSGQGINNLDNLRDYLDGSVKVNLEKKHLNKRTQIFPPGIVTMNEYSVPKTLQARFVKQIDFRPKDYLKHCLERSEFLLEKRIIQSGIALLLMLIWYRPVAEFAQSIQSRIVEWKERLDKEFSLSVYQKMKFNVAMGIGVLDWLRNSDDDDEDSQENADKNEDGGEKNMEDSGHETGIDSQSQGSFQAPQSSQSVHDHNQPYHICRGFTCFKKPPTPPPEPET

[12] = target: Sphingosine 1-phosphate receptor 4 (Homo sapiens, UniProt O95977); test: Fluorescence dose response cell-based high throughput screening assay for agonists of the Sphingosine 1-Phosphate Receptor 4 (S1P4). [Related pubchem assays: 1509 (Primary screen.), 1523 (Confirmation screen in triplicates.)]; format: functional
Sequence of Sphingosine 1-phosphate receptor 4 (O95977 whole entry): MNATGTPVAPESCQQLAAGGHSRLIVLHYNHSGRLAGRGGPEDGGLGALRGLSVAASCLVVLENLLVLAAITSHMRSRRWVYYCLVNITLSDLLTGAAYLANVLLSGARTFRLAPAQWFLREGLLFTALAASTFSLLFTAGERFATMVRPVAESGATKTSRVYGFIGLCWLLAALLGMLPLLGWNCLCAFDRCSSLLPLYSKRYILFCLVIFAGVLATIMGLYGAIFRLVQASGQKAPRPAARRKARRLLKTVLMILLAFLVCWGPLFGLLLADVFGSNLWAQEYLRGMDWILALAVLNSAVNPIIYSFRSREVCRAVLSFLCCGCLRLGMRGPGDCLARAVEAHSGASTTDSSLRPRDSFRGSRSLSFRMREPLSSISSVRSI

[13] = target: Sphingosine 1-phosphate receptor 1 (Homo sapiens, UniProt P21453); test: Fluorescence-based counterscreen assay for S1P4 agonists: Cell-based dose response high throughput screening assay to identify agonists of the Sphingosine 1-Phosphate Receptor 1 (S1P1). [Related pubchem assays (depositor defined):AID1509, AID1523, AID1801, AID463107, AID463118, AID463119, AID463122, AID463123, AID463129, AID463225, AID504400, AID504460]; format: functional
Sequence of Sphingosine 1-phosphate receptor 1 (P21453 whole entry): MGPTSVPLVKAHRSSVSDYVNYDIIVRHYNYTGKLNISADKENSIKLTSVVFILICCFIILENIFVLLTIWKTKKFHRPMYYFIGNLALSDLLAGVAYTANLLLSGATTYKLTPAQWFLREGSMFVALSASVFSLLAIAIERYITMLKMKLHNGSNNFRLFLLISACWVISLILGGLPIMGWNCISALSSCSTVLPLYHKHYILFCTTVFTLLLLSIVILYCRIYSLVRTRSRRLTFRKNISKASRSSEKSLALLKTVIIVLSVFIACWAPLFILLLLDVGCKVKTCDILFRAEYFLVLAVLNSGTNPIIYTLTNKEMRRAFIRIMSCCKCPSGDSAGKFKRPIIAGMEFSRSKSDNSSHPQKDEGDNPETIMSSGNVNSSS

[14] = target: Eukaryotic translation initiation factor 4E (Mus musculus, UniProt P63073); test: eIF4E–eIF4G protein interaction inhibitors, dose response, biochemical, TR-FRET (AID 855); format: functional;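 also: potency for disrupting eIF4E binding to eIF4GI seen as loss of FRET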
Sequence of Eukaryotic translation initiation factor 4E (P63073 whole entry, the tested form may be a part): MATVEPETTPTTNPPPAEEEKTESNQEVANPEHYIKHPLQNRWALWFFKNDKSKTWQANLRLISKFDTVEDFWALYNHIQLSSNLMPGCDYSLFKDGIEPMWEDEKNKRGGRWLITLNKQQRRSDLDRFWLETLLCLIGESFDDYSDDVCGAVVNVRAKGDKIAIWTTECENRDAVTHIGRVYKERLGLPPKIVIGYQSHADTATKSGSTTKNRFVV

[15] = target: T4, RNA-binding protein pos-1 (Caenorhabditis elegans, UniProt G5EF15); test: inhibitors of POS-1/mex-3 RNA binding, dose response, biochemical, fluorescence polarization (AID 1964);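 also: purified POS-1 fused to maltose binding protein made in E. coli; potency of compounds blocking POS-1 binding to fluorescent RNA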
T4 sequence (G5EF15 whole entry): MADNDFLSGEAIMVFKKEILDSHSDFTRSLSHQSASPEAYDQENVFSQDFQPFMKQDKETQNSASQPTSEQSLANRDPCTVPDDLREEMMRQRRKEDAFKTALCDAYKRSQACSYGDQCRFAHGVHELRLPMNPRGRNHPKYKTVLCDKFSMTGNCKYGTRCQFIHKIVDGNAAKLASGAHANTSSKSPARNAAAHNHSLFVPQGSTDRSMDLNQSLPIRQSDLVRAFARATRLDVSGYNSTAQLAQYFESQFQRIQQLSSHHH

[16] = target: DNA dC->dU-editing enzyme APOBEC-3G (Homo sapiens, UniProt Q9HC16); test: Dose Response confirmation of small molecule APOBEC3G DNA Deaminase Inhibitors via a fluorescence-based single-stranded DNA deaminase assay. [Related pubchem assays (depositor defined):AID493012, AID493028]; format: functional
Sequence of DNA dC->dU-editing enzyme APOBEC-3G (Q9HC16 whole entry): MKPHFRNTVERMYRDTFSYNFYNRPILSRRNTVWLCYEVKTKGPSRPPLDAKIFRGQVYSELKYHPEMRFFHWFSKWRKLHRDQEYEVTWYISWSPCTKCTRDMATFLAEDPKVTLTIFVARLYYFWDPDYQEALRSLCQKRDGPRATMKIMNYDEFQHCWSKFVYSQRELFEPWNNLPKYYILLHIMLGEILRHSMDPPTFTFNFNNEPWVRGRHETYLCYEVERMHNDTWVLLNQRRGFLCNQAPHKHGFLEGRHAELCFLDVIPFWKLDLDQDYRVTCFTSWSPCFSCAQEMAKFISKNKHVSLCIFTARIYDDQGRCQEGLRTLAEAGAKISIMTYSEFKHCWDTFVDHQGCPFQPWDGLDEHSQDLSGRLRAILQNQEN

[17] = target: Induced myeloid leukemia cell differentiation protein Mcl-1 (Homo sapiens, UniProt Q07820); format: functional
[18] = target: Glutathione-S-transferase (Schistosoma japonicum, UniProt Q26513); test: biotin-GST/anti-GST TR-FRET signal inhibitors, dose response, artefact control for Vif-APOBEC3G degradation inhibitor project, biochemical (AID 1117362); format: functional
Sequence of Glutathione-S-transferase (Q26513 whole entry): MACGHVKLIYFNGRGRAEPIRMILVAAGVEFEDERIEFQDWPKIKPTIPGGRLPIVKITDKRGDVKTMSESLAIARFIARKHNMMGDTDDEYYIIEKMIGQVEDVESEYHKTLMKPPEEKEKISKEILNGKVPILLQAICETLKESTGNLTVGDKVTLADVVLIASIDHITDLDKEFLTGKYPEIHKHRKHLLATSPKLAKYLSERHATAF

[19] = target: T5, Zinc finger protein mex-5 (Caenorhabditis elegans, UniProt Q9XUB2); test: MEX-5/TCR-2 RNA interaction inhibitors, dose response, biochemical, C. elegans, fluorescence polarization (AID 1960)
T5 sequence (Q9XUB2 whole entry): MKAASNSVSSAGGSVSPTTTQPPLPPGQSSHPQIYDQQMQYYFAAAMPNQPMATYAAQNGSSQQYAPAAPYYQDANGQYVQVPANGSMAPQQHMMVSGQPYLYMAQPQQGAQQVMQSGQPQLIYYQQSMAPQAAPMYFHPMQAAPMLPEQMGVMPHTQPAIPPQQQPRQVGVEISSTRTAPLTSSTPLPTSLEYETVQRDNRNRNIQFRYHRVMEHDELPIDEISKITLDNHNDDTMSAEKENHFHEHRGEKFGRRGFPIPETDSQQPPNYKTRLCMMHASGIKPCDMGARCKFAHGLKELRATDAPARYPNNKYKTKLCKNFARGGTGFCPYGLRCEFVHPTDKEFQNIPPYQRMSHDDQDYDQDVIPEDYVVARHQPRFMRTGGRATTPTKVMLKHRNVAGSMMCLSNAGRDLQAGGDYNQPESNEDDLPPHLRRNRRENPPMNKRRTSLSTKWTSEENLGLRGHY

[20] = target: T6, Runt-related transcription factor 1/Core-binding factor subunit beta (Homo sapiens, UniProt Q01196+Q13951); test: Confirmation of compounds inhibiting the binding between the RUNX1 Runt domain and CBFb-SMMHC via a time resolved fluorescence resonance energy transfer (TR-FRET) assay. [Related pubchem assays (depositor defined):AID1434, AID1438, AID1496, AID1560, AID1645]; format: protein assay
T6 sequence (Q01196 whole entry, the tested form may be a part): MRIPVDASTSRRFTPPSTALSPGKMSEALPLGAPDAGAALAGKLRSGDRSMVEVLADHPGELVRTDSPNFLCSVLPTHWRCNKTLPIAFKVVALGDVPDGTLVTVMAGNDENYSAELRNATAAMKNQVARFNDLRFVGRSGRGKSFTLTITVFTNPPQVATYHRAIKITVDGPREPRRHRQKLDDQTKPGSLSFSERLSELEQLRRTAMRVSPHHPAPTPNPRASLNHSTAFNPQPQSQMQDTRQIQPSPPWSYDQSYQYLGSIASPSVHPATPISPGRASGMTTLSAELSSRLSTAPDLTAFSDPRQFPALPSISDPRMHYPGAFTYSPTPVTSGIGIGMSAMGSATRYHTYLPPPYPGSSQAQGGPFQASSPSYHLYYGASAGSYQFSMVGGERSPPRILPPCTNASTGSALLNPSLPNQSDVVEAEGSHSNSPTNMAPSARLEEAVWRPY
T6 sequence (Q13951 whole entry, the tested form may be a part): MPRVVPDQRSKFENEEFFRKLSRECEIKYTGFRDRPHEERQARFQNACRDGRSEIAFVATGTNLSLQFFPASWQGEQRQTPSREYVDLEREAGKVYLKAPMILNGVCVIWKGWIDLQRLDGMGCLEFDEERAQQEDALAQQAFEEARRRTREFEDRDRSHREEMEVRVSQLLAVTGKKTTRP

[21] = target: T6, Runt-related transcription factor 1/Core-binding factor subunit beta; test: inhibitors of RUNX1 Runt–CBFb-SMMHC binding, primary screen, biochemical, FRET, Cerulean-Runt, Venus-CBFb-SMMHC, uHTS (AID 1434); format: protein assay;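 also: partner is the CBFb-SMMHC leukemia fusion protein rather than wild-type CBFb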
[22] = THP-1 cell cytotoxicity, dose response, cytotoxicity control for Vif-APOBEC3G degradation inhibitor project, THP-1 cells (AID 1117359); format: functional; settings: Human immunodeficiency virus 1, THP-1
[23] = target: T6, Runt-related transcription factor 1/Core-binding factor subunit beta; test: inhibitors of RUNX1 Runt–CBFb-SMMHC binding, biochemical, TR-FRET (AID 1438); format: protein assay
[24] = target: T7, Mannose-6-phosphate isomerase (Homo sapiens, UniProt P34949); test: human PMI inhibitors, high substrate, primary screen, biochemical, fluorescence intensity, high mannose 6-phosphate (AID 1220)
T7 sequence (P34949 whole entry): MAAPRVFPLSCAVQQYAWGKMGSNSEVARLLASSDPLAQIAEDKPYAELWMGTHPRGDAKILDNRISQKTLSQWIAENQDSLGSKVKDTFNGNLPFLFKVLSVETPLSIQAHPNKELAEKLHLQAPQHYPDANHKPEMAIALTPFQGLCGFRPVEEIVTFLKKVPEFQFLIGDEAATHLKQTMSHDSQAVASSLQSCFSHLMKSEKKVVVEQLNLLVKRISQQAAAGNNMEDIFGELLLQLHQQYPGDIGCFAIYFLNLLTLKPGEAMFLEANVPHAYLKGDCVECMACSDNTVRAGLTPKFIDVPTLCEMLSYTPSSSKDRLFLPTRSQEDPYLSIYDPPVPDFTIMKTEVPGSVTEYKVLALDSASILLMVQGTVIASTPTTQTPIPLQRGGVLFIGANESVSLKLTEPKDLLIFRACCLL

[25] = target: Glucose-6-phosphate 1-dehydrogenase (Homo sapiens, UniProt P11413); test: human G6PD enzyme inhibitors, dose response, selectivity assay for P. falciparum G6PD inhibitor project, biochemical, fluorescence (AID 504792); format: functional
[26] = target: T8, DNA repair protein RAD52 homolog (Homo sapiens, UniProt P43351); format: functional, biochemical
T8 sequence (P43351 whole entry): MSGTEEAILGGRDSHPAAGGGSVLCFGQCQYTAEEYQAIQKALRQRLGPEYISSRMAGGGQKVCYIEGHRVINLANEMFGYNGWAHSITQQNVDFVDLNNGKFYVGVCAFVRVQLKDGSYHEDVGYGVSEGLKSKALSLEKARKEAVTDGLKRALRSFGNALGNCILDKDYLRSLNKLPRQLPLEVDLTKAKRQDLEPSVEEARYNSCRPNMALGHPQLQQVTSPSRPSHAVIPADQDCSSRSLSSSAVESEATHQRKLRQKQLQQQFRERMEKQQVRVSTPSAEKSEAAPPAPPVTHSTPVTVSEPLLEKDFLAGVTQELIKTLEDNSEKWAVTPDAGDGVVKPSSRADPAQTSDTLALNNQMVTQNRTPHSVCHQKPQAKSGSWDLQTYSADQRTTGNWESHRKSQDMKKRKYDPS

[27] = target: T3, Mu-type opioid receptor; format: functional, cell-based
[28] = target: 5-hydroxytryptamine receptor 2A (Mus musculus, UniProt P35363); format: functional, cell-based;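 also: CHO-K1 cells with tagged receptor and beta-arrestin; agonist potency measured as compound-induced activation of the receptor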
Sequence of 5-hydroxytryptamine receptor 2A (P35363 whole entry, the tested form may be a part): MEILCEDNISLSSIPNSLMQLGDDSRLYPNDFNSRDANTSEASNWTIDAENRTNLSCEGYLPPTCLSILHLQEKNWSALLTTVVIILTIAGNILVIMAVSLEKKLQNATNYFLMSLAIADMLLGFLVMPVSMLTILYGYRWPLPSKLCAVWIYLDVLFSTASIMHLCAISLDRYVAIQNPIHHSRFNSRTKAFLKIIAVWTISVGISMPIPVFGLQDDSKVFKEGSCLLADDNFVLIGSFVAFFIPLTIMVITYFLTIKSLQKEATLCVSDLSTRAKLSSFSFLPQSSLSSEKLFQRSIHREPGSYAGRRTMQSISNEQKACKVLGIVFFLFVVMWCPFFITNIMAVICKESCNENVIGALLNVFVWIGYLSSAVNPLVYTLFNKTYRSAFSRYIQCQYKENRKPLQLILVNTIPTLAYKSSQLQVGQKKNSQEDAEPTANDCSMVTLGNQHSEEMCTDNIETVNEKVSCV

[29] = target: T6, Runt-related transcription factor 1/Core-binding factor subunit beta; test: Confirmation of compounds inhibiting the binding between the RUNX1 Runt domain and CBFb-SMMHC via a fluorescence resonance energy transfer (FRET) assay. [Related pubchem assays (depositor defined):AID1434, AID1438, AID1496, AID1550, AID1645]; format: protein assay

**Q.** Which IC50 [1] does the source give for `O=C1NCC2=C1C(c1ccccc1)Nc1ccccc1N2` (stereo not given) here?
**A.** The IC50 was > 100 µM (inactive).

**Q.** For `CCOc1ccc(CCNC(=O)CSc2cc(=O)n(CC)c3ccccc23)cc1OCC`, which EC50 [2] is on record?
**A.** Its EC50 is > 79.4 µM (not active).

**Q.** What about the EC50 [3] of the same compound?
**A.** The EC50 was 121 µM (not active).

**Q.** What about the EC50 [4] of the same compound?
**A.** Its EC50 is > 79.4 µM (inactive).

**Q.** For `COc1ccc(NC(=O)Cc2ccc(C)cc2)c([N+](=O)[O-])c1`, which IC50 [5] is on record?
**A.** The IC50 was > 100 µM (inactive).

**Q.** What about the IC50 [6] of the same compound?
**A.** Its IC50 is > 100 µM (not active).

**Q.** Which results are given for `Fc1cccc(F)c1CSc1nnc(-c2ccccn2)n1Cc1ccco1`?
**A.** EC50 [7]: > 64 µM (inactive); EC50 [8]: > 32 µM (inactive); EC50 [9]: > 20 µM (inactive); EC50 [10]: > 32 µM (inactive)

**Q.** Which results are given for `C/C(=N/NC(N)=S)c1cc2ccc(O)cc2oc1=O`?
**A.** IC50 [11]: 27.7 µM (active); EC50 [12]: 11.8 µM (not active); EC50 [13]: 93.5 µM (inactive)

**Q.** What does the source list for `CN1CCc2cccc3c2[C@H]1Cc1ccc(O)c(O)c1-3` [APOMORPHINE HYDROCHLORIDE]?
**A.** IC50 [11]: > 100 µM (active) and 15.3 µM (active); IC50 [14]: > 64 µM (inactive); EC50 [15]: 16.9 µM (inconclusive); IC50 [16]: 26.2 µM (active); IC50 [17]: 4.38 µM (active); IC50 [18]: 74.8 µM (active); EC50 [19]: 4.42 µM (active); IC50 [20]: 18.9 µM (active); IC50 [21]: 9.66 µM (active); CC50 [22]: 16.9 µM (active); IC50 [23]: 9.81 µM (active); IC50 [24]: 14.6 µM (active); IC50 [25]: 34.6 µM (inactive); AC50 [26]: 7.1 µM (active); EC50 [27]: 92.5 µM (inactive) and 92.4 µM (inactive); EC50 [28]: 6.41 nM (active) and 8.15 nM (active); IC50 [29]: 13.4 µM (active)
